Read-outs that look alike come from different tables or passages of the source.
Tests used:
CK-1δ [1] = target: T1, CK-1δ (Homo sapiens, UniProt P48730); settings: cited from earlier work
T1 construct: amino acids 1–294; GST (N); purchased Merck Millipore
T1 sequence (P48730 1-294): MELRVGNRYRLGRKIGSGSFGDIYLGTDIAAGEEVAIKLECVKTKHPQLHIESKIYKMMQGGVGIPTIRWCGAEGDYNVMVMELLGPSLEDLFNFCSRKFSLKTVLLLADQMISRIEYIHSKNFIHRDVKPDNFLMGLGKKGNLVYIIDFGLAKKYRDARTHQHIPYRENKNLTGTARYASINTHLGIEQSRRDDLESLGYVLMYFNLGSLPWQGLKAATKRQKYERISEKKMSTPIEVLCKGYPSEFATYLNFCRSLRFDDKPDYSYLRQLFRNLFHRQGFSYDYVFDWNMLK

hMAO-A = target: T2, hMAO-A (Homo sapiens, UniProt P21397); assay: hMAO-A inhibitory activity (kynuramine, spectrophotometric); assay type: biochemical; settings: for inhibition at 10 µM: read-out: hMAO-A inhibition at the highest concentration tested
T2 sequence (P21397 1-527): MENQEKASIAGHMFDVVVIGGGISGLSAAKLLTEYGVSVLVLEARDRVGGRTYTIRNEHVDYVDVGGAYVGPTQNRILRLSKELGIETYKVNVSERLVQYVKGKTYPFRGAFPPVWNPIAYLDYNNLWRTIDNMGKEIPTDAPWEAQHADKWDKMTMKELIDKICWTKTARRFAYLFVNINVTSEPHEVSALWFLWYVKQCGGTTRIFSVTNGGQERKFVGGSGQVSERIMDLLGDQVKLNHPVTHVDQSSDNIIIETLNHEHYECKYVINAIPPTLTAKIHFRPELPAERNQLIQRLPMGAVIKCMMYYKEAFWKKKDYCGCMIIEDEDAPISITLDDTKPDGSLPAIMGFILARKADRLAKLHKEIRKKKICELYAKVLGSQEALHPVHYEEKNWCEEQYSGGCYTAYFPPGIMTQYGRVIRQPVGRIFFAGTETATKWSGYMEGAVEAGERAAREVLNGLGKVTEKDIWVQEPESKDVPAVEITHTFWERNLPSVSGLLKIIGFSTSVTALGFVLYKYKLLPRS

LH5 lymphoblasts = assay: Antioxidant activity after menadione in healthy lymphoblasts; assay type: cell-based, human; settings: LH5, 10 μM menadione 3 h, 10 µM compound pretreatment 21 h
hMAO-B = target: T3, hMAO-B (Homo sapiens, UniProt P27338); assay: hMAO-B inhibitory activity (kynuramine, spectrophotometric); assay type: biochemical; settings: for inhibition at 10 µM: read-out: hMAO-B inhibition at the highest concentration tested; for SI: hMAO-B selectivity index = IC50 (hMAO-A)/IC50 (hMAO-B): bounds assume IC50 = 10 µM for inactive isoform
T3 sequence (P27338 1-520): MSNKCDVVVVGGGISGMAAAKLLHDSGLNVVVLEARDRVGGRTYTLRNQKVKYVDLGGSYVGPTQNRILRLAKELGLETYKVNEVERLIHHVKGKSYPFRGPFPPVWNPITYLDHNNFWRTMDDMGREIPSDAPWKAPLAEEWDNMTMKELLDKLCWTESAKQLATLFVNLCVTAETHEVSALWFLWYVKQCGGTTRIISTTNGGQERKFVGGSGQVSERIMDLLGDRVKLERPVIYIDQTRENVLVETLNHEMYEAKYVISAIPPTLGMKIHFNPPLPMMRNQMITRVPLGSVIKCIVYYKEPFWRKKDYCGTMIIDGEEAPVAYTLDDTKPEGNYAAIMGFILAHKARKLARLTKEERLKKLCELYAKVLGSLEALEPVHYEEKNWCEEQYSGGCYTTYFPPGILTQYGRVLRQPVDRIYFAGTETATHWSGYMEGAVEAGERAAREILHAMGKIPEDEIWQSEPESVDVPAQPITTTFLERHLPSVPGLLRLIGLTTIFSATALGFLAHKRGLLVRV

[2] = system: Bcl-2 expression in N9 microglial cells; assay: Antiapoptotic effects in LPS-insulted N9 microglia, Bcl-2 Western blot; assay type: cell-based
[3] = system: iNOS expression in N9 microglial cells; assay: Immunomodulation in LPS-insulted N9 microglia, iNOS Western blot; assay type: cell-based; settings: LPS-insulted N9, 10 μM
CK-1δ [4] = target: T1, CK-1δ; assay: CK-1δ activity assay (KinaseGlo luminescence); assay type: biochemical; settings: read-out: residual CK-1δ activity (%)
Method: CK-1δ activity assay. Compounds were evaluated towards CK-1δ (Merck Millipore, recombinant human, amino acids 1–294, with N-terminal GST-tagged) with the KinaseGloR luminescence assay (Promega) […]
following procedures reported in literature.10 In detail, luminescent assays were performed in black 96-well plates, using a buffer composed of: 50 mM HEPES (pH 7.5), 1 mM EDTA, 1 mM EGTA, and 15 mM […]
solution was used as a negative control. In a typical assay, 10 μL of inhibitor solution (obtained using a 10 mM DMSO solution diluted in assay buffer to 160 μM that corresponds to a final concentration of 40 μM in the assay) and 10 μL (16 ng of CK1δ) of enzyme solution were added to the well, followed by 20 μL of assay buffer containing 0.1% casein substrate and 4 μM ATP. The final DMSO concentration in the reaction […]
After 60 min of incubation at 30 °C for CK1δ the enzymatic reactions were stopped with 40 μL of Kinase-Glo reagent (Promega). Luminescence signal (relative light unit,RLU) was recorded after 10 min at 25 °C using Tecan Infinite M100. The activity is proportional to the difference of the total and consumed ATP. The residual activities of the enzyme were calculated on the basis of maximal activities measured in the absence of inhibitor. Data were analyzed using Excel and percentages of enzyme residual activity are reported as means ± standard deviation of two independent experiments performed in […]

[5] = PAMPA-BBB permeability assay; settings: for Papp: PAMPA, PAMPA-BBB; for CNS prediction: predicted from PAMPA Pe
LPS5 lymphoblasts [6] = assay: Antioxidant activity after menadione in ALS patient lymphoblasts; assay type: cell-based, human; settings: for rescue of cell viability after menadione: LPS5, 10 μM menadione 3 h, 10 µM compound pretreatment 21 h
[7] = system: primary cerebellar granule neurons (CGNs); assay: Neuroprotection on glutamate-mediated excitotoxicity in CGNs (MTT); settings: 100 μM glutamate; for reversal of glutamate-mediated excitotoxicity: CGNs
LPS5 lymphoblasts [8] = assay: Cell viability in mutSOD1 lymphoblasts (resazurin reduction); assay type: cell-based, human; settings: LPS5 (mutSOD1), 1, 10, 100 µM, 24 h
[9] = Antioxidant activity after menadione in healthy lymphoblasts; assay type: cell-based, human; settings: human, LH5 lymphoblast-derived cell line, read-out: cell viability after menadione insult
[10] = Antioxidant activity after menadione in ALS patient lymphoblasts; assay type: cell-based, human; settings: human, LPS5 lymphoblast-derived cell line; LPS5, 50 μM menadione; read-out: cell viability after menadione insult
[11] = PAMPA
[12] = Table S3, mean ± SD, highest concentration 10 µM, read-out: IC50 hMAO-A
[13] = Table S3, mean ± SD, highest concentration 10 µM, read-out: IC50 hMAO-B
[14] = pH 7.4, Pe, in vitro permeability coefficient, PBS pH 7.4, Pe ± SEM
[15] = pH 7.4, permeability coefficient (Pe)

Row | SMILES | IC50 (hMAO-A; [12]) | IC50 (hMAO-B; [13]) | inhibition at 10 µM (hMAO-A) | remaining activity at 40 µM (CK-1δ [4]) | Papp [5, 14] | CNS prediction [5] | inhibition at 10 µM (hMAO-B) | also measured
1 | CC[C@H](CO)Nc1nc(NCc2ccc(-c3ccccn3)cc2)c2ncn(C(C)C)c2n1 [CR8] |  |  |  |  |  |  |  | IC50 (CK-1δ [1]; read-out: IC50 (positive control)): 0.4 µM
2 | Nc1nc2ccc(OC(F)(F)F)cc2s1 [Compound 1, riluzole, reference compound] | 8.71 ± 0.81 µM | > 10 µM |  |  |  |  |  | IC50 (hMAO-A; read-out: hMAO-A IC50): 8.7 µM; rescue of cell viability after menadione (LH5 lymphoblasts): a viability recovery trend; IC50 (CK-1δ [1]; read-out: IC50 against CK1δ): 16.1 µM; Bcl-2 expression ([2]; LPS-insulted N9, 1 or 10 μM): increased the level of the anti-apoptotic Bcl-2 marker; iNOS expression [3]: moderate decrease of iNOS expression
3 | C#CCN[C@@H]1CCc2ccccc21 [Compound 2, rasagiline, reference compound] |  |  |  |  |  |  |  | Bcl-2 expression ([2]; LPS-insulted N9, 1 or 10 μM): increased the level of the anti-apoptotic Bcl-2 marker; iNOS expression [3]: moderate decrease of iNOS expression
4 | C#CCN(CC#C)Cc1ccc2nc(N)sc2c1 [Compound 3] | > 10 µM | > 10 µM | < 50% | 64.4% | 24.9 ± 0.25 ×10⁻⁶ cm/s | CNS + (CNS +: high BBB permeation predicted, Pe (×10-6 cm s-1) > 4.0) | < 50% | melting point: 148 °C
5 | C#CCNCc1ccc2nc(N)sc2c1 [Compound 4] | > 10 µM | > 10 µM | < 50% | 69% | 9.3 ± 0.1 ×10⁻⁶ cm/s | CNS + (CNS +: high BBB permeation predicted, Pe (×10-6 cm s-1) > 4.0) | < 50% | 
6 | C#CCN(C)Cc1ccc2nc(N)sc2c1 [Compound 5] | 2.73 ± 0.39 µM | 9.31 ± 1.57 µM |  | 83.7% | 22.7 ± 0.6 ×10⁻⁶ cm/s | CNS + (CNS +: high BBB permeation predicted, Pe (×10-6 cm s-1) > 4.0) |  | IC50 (hMAO-A; read-out: hMAO-A IC50): 2.7 ± 0.4 µM; rescue of cell viability after menadione (LH5 lymphoblasts): a better restorative activity trend than the combination; rescue of cell viability after menadione (LPS5 lymphoblasts [6]): no significant effects; reversal of glutamate-mediated excitotoxicity ([7]; compound 1, 10, 25 μM): no significant changes; SI: hMAO-B selectivity index = IC50 (hMAO-A)/IC50 (hMAO-B) (hMAO-B): 0.29; IC50 (hMAO-B; read-out: hMAO-B IC50): 9.3 ± 1.6 µM; Bcl-2 expression ([2]; LPS-insulted N9, 10 μM): a trend of recovery in Bcl-2 expression
7 | C#CCNc1nc2ccc(N(CC#C)C(C)=O)cc2s1 [Compound 6] | 6.88 ± 0.46 µM | > 10 µM |  | 85.2% | 10.2 ± 0.25 ×10⁻⁶ cm/s | CNS + (CNS +: high BBB permeation predicted, Pe (×10-6 cm s-1) > 4.0) |  | IC50 (hMAO-A; read-out: hMAO-A IC50): 6.9 µM; rescue of cell viability after menadione (LH5 lymphoblasts): a better restorative activity trend than the combination; rescue of cell viability after menadione (LPS5 lymphoblasts [6]): no significant effects; cytotoxic effects, cell viability (LPS5 lymphoblasts [8]): no toxicity; reversal of glutamate-mediated excitotoxicity ([7]; compound at 1 and 10 μM): restored viability; Papp [5, 15]: 10.1 ± 0.2 ×10⁻⁶ cm/s; SI: hMAO-B selectivity index = IC50 (hMAO-A)/IC50 (hMAO-B) (hMAO-B): < 0.69; Bcl-2 expression ([2]; LPS-insulted N9, 10 μM): not evident; Bcl-2 expression ([2]; LPS-insulted N9, 1 or 10 μM): no increase in the level of the Bcl-2 anti-apoptotic marker; reduction of iNOS level [3]: about 60%
8 | C#CCNC1CCc2nc(N)sc2C1 (centres unmarked) [Compound 7] | > 10 µM | > 10 µM | < 50% |  | 7.7 ± 1 ×10⁻⁶ cm/s | CNS + (CNS +: high BBB permeation predicted, Pe (×10-6 cm s-1) > 4.0) | < 50% | Papp [5, 15]: 7.7 ± 1 ×10⁻⁶ cm/s
9 | C#CCNc1nc2c(s1)CC(N(CC#C)C(C)=O)CC2 (centres unmarked) [Compound 8] | > 10 µM | > 10 µM | < 50% |  | 4.6 ± 0.6 ×10⁻⁶ cm/s | CNS + (CNS +: high BBB permeation predicted, Pe (×10-6 cm s-1) > 4.0) | < 50% | Papp [5, 15]: 4.6 ± 0.6 ×10⁻⁶ cm/s
10 | CO/N=C(\C(=O)N[C@@H]1C(=O)N2C(C(=O)O)=C(COC(N)=O)CS[C@H]12)c1ccco1 [cefuroxime, reference compound] |  |  |  |  | 0.62 ± 0.16 ×10⁻⁶ cm/s | CNS - (CNS -: low BBB permeation predicted, Pe (×10-6 cm s-1) < 2.0) |  | 
11 | N[C@@H](CCC(=O)O)C(=O)O [glutamate, reference compound] |  |  |  |  |  |  |  | viability of CGNs exposed to glutamate ([7]; compared with the control): 80%
12 | CC1=CC(=O)c2ccccc2C1=O [menadione, 2-methyl-1,4-naphthoquinone, reference compound] |  |  |  |  |  |  |  | viability at 3 h, 10 µM ([9]; LH5, 10 μM menadione): 80%; viability at 3 h, 50 µM ([9]; LH5, 50 μM menadione): ~40%; viability at 3 h, 50 µM [10]: ~80%; cytotoxic effect of menadione (LPS5 lymphoblasts [6]; LPS5, 10 μM menadione): unable to cause a cytotoxic effect
13 | CCN(C)C(=O)Oc1cccc([C@H](C)N(C)C)c1 [rivastigmine] |  |  |  |  |  |  |  | CNS prediction [11]: CNS + (key: CNS +: high BBB permeation predicted, Pe (×10-6 cm s-1) > 4.0; CNS -: low BBB permeation predicted, Pe (×10-6 cm s-1) < 2.0)

Reference: paper PMC9354084 (ACS Chemical Neuroscience, 2022)
